Test system: NOMO1
Assay: cell viability relative to DMSO control; higher = less cytotoxic
Settings: 48 h
In short: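 Viability is a per-plate percentage relative to DMSO wells, with cell-free wells as background. CellTiter-Glo One luminescence was read after 48 h at 37°C on 1536-well plates (5 μl) of NOMO1 or SEM (500 cells/well) or P12-Ichikawa (1000 cells/well) leukemia cells. The cells had been adapted for at least four passages in each medium and pin-dosed with library compounds in DMSO from 47 μM to 0.79 nM in 11 threefold steps.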

[1] = HPLM + 10% dialyzed FBS, 0.000781 µM
[2] = HPLM + 10% dialyzed FBS, 0.00234 µM
[3] = HPLM + 10% dialyzed FBS, 0.00702 µM
[4] = HPLM + 10% dialyzed FBS, 0.0211 µM
[5] = HPLM + 10% dialyzed FBS, 0.0632 µM
[6] = HPLM + 10% dialyzed FBS, 0.19 µM
[7] = HPLM + 10% dialyzed FBS, 0.569 µM
[8] = HPLM + 10% dialyzed FBS, 1.71 µM
[9] = HPLM + 10% dialyzed FBS, 5.12 µM
[10] = HPLM + 10% dialyzed FBS, 15.4 µM
[11] = HPLM + 10% dialyzed FBS, 46.1 µM
[12] = RPMI 5 mM glucose + 10% FBS, 0.000781 µM
[13] = RPMI 5 mM glucose + 10% FBS, 0.00234 µM
[14] = RPMI 5 mM glucose + 10% FBS, 0.00702 µM
[15] = RPMI 5 mM glucose + 10% FBS, 0.0211 µM
[16] = RPMI 5 mM glucose + 10% FBS, 0.0632 µM
[17] = RPMI 5 mM glucose + 10% FBS, 0.19 µM
[18] = RPMI 5 mM glucose + 10% FBS, 0.569 µM
[19] = RPMI 5 mM glucose + 10% FBS, 1.71 µM
[20] = RPMI 5 mM glucose + 10% FBS, 5.12 µM
[21] = RPMI 5 mM glucose + 10% FBS, 15.4 µM
[22] = RPMI 5 mM glucose + 10% FBS, 46.1 µM
[23] = RPMI 5 mM glucose + 10% dialyzed FBS, 0.000781 µM
[24] = RPMI 5 mM glucose + 10% dialyzed FBS, 0.00234 µM
[25] = RPMI 5 mM glucose + 10% dialyzed FBS, 0.00702 µM
[26] = RPMI 5 mM glucose + 10% dialyzed FBS, 0.0211 µM
[27] = RPMI 5 mM glucose + 10% dialyzed FBS, 0.0632 µM
[28] = RPMI 5 mM glucose + 10% dialyzed FBS, 0.19 µM
[29] = RPMI 5 mM glucose + 10% dialyzed FBS, 0.569 µM
[30] = RPMI 5 mM glucose + 10% dialyzed FBS, 1.71 µM
[31] = RPMI 5 mM glucose + 10% dialyzed FBS, 5.12 µM
[32] = RPMI 5 mM glucose + 10% dialyzed FBS, 15.4 µM
[33] = RPMI 5 mM glucose + 10% dialyzed FBS, 46.1 µM

| Structure (SMILES) | cell viability [1] [%] | cell viability [2] [%] | cell viability [3] [%] | cell viability [4] [%] | cell viability [5] [%] | cell viability [6] [%] | cell viability [7] [%] | cell viability [8] [%] | cell viability [9] [%] | cell viability [10] [%] | cell viability [11] [%] | cell viability [12] [%] | cell viability [13] [%] | cell viability [14] [%] | cell viability [15] [%] | cell viability [16] [%] | cell viability [17] [%] | cell viability [18] [%] | cell viability [19] [%] | cell viability [20] [%] | cell viability [21] [%] | cell viability [22] [%] | cell viability [23] [%] | cell viability [24] [%] | cell viability [25] [%] | cell viability [26] [%] | cell viability [27] [%] | cell viability [28] [%] | cell viability [29] [%] | cell viability [30] [%] | cell viability [31] [%] | cell viability [32] [%] | cell viability [33] [%] |
| --- | --- | --- | --- | --- | --- | --- | --- | --- | --- | --- | --- | --- | --- | --- | --- | --- | --- | --- | --- | --- | --- | --- | --- | --- | --- | --- | --- | --- | --- | --- | --- | --- | --- |
| C#C[C@]1(O)CC[C@H]2[C@@H]3CCc4cc(OC)ccc4[C@H]3CC[C@@]21C | 108 | 123 | 114 | 118 | 117 | 114 | 107 | 105 | 109 | 102 | 95.4 | 117 | 124 | 108 | 110 | 123 | 123 | 117 | 108 | 106 | 104 | 93.5 | 115 | 107 | 106 | 124 | 120 | 108 | 103 | 109 | 104 | 103 | 107 |
| CNCC(O)C(O)C(O)C(O)CO.O=C(O)c1ccc(-c2cc3cccnc3c(-c3ccc4nonc4c3)n2)cc1 | 105 | 110 | 115 | 111 | 121 | 126 | 112 | 122 | 112 | 110 | 76.7 | 118 | 119 | 119 | 118 | 115 | 112 | 125 | 106 | 117 | 119 | 102 | 99 | 105 | 124 | 120 | 114 | 111 | 127 | 111 | 111 | 118 | 74.4 |
| CN(C)CCCNC(=O)c1ccc(-c2cc(O)c3ncccc3c2)cc1 | 113 | 110 | 109 | 107 | 105 | 85.9 | 117 | 98.8 | 114 | 86.7 | 60.1 | 89.1 | 89.5 | 96.2 | 99.5 | 103 | 84 | 86.1 | 87.7 | 97.2 | 85.9 | 82.4 | 96.3 | 94.6 | 112 | 98.1 | 102 | 112 | 94.2 | 101 | 106 | 91.1 | 62.8 |
| COc1ccc2c(c1OC)CN1CCc3cc4c(cc3C1C2)OCO4 (stereo not drawn) | 86.4 | 82.4 | 98.4 | 99.3 | 109 | 82.5 | 96.7 | 44.7 | 14.9 | 6.67 | 5.61 | 106 | 92.4 | 89.2 | 98.8 | 98.4 | 89.9 | 100 | 42.6 | 16 | 6.1 | 5.21 | 88 | 92.7 | 93.3 | 103 | 102 | 92.2 | 92.9 | 49.3 | 20.5 | 5.52 | 4.95 |
| COC(=O)[C@@H](N)CCCNC(=N)N[N+](=O)[O-] | 92.9 | 97.2 | 105 | 88 | 103 | 118 | 99.1 | 96.7 | 104 | 93.9 | 103 | 90 | 85.6 | 96.3 | 88.9 | 86.9 | 86.3 | 92.4 | 88.1 | 92.6 | 93.3 | 102 | 76.9 | 96.3 | 93.8 | 95.7 | 97.4 | 103 | 97.9 | 93.4 | 94.2 | 101 | 105 |
| O=C(CCc1ccc(O)cc1)c1c(O)cc(O)cc1O[C@@H]1O[C@H](CO)[C@@H](O)[C@H](O)[C@H]1O | – | – | – | – | – | – | – | – | – | – | – | 82.5 | 80.8 | 81.7 | 77 | 92.1 | 86.1 | 82.4 | 78.1 | 85.4 | 75.1 | 84.8 | 104 | 96 | 115 | 105 | 115 | 106 | 50.2 | 73.1 | 85.1 | 53.1 | 81.2 |
| CC(C)c1ccccc1Cc1cc(C(=O)Nc2ccc([S+](=O)([O-])c3ccccc3C(C)(C)C)cc2)c(O)c(O)c1O | – | – | – | – | – | – | – | – | – | – | – | 102 | 116 | 101 | 102 | 114 | 117 | 102 | 109 | 105 | 97.4 | 87.7 | 103 | 117 | 111 | 115 | 108 | 118 | 104 | 118 | 96.8 | 97 | 104 |
| OC(COC1=C2C(=O)\C=C(/OC2=CC=C1)C([O-])=O)COC3=C4C(=O)\C=C(/OC4=CC=C3)C([O-])=O | 95.5 | 86.8 | 93.7 | 94.2 | 94.8 | 80.8 | 96.3 | 86.1 | 86.3 | 94.5 | 93 | 72.6 | 74.5 | 74.7 | 76.4 | 80.4 | 74.5 | 74.8 | 83.3 | 71 | 80.3 | 84.8 | 75.4 | 82 | 73.3 | 76.4 | 86 | 72.7 | 89.1 | 88.6 | 87.9 | 86 | 90.4 |
| CCOC1=CC(=CC=C1C/2=N/[C@@](C)(C3=CC=C(Cl)C=C3)[C@](C)(N2C(=O)N4CCN(CC4)CC(=O)N5CCOCC5)C6=CC=C(Cl)C=C6)C(C)(C)C | – | – | – | – | – | – | – | – | – | – | – | 93.3 | 90.6 | 96.3 | 105 | 112 | 121 | 98.6 | 99.3 | 102 | 91.6 | 97 | 92.6 | 113 | 102 | 102 | 126 | 120 | 124 | 100 | 81.8 | 90.1 | 86.2 |
| CN[S+](=O)([O-])CCc1ccc2[nH]cc(C3CCN(C)CC3)c2c1 | 91.2 | 95.9 | 91.3 | 114 | 112 | 107 | 106 | 101 | 98.6 | 108 | 107 | 83 | 84.2 | 91.3 | 86.6 | 99.7 | 89.5 | 87.6 | 92.7 | 102 | 87.8 | 96.4 | 91.5 | 83.4 | 90.3 | 95.4 | 93.3 | 104 | 105 | 96.2 | 102 | 85.3 | 89.3 |
| OCCCNc1cc(-c2ccnc(Nc3cccc(Cl)c3)n2)ccn1 | 106 | 107 | 119 | 119 | 114 | 80.4 | 14.1 | 7.46 | 8.09 | 6.31 | 4.31 | 92.2 | 98.4 | 117 | 111 | 107 | 54.5 | 18.8 | 9.75 | 8.02 | 7.79 | 4.61 | 97.5 | 95.8 | 100 | 106 | 100 | 63.3 | 15.8 | 7.75 | 7.44 | 7.1 | 5.05 |
| Cc1cn(CCN2CCN(c3ccccc3-c3cc(C#N)cc(C(=O)NCCCN4CCCC4)c3)CC2)c2ccccc12 | 103 | 111 | 111 | 121 | 148 | 130 | 127 | 134 | 85.3 | 35.3 | 10.7 | 102 | 110 | 115 | 109 | 125 | 119 | 119 | 112 | 108 | 38.4 | 22.7 | 119 | 102 | 109 | 119 | 120 | 110 | 124 | 112 | 96.4 | 44.5 | 25.5 |
| Cc1ncc([N+](=O)[O-])n1CCO | 112 | 122 | 126 | 145 | 130 | 122 | 120 | 137 | 116 | 142 | 120 | – | – | – | – | – | – | – | – | – | – | – | 113 | 113 | 125 | 131 | 137 | 140 | 132 | 142 | 129 | 136 | 130 |
| COc1cc(N[S+](=O)([O-])c2ccc(N)cc2)nc(OC)n1 | 102 | 106 | 111 | 116 | 109 | 92.5 | 114 | 112 | 99.3 | 132 | 109 | 107 | 106 | 116 | 111 | 124 | 111 | 112 | 103 | 96.3 | 111 | 120 | 105 | 91.9 | 104 | 103 | 102 | 115 | 110 | 99.9 | 94 | 116 | 111 |
| N\C1=N\C2=C(N=C[N]2COC(CO)CO)C(=O)N1 | 88.7 | 110 | 116 | 114 | 131 | 120 | 133 | 109 | 110 | 92.2 | 5.43 | 110 | 119 | 114 | 118 | 103 | 107 | 121 | 110 | 116 | 101 | 4.52 | 99.5 | 112 | 99.5 | 102 | 122 | 117 | 117 | 112 | 99.8 | 95.5 | 3.67 |
| C=CCn1c(=O)c2cnc(Nc3ccc(N4CCN(C)CC4)cc3)nc2n1-c1cccc(C(C)(C)O)n1 | 125 | 116 | 123 | 122 | 125 | 96.2 | 52.1 | 31.8 | 24.3 | 28.1 | 29.2 | 118 | 117 | 138 | 128 | 140 | 132 | 122 | 36.9 | 18.5 | 17.9 | 18.6 | – | – | – | – | – | – | – | – | – | – | – |

— the supplement of paper PMC11451515
